Experiment in all cases: NCI anticancer screen, dose series, 48 h
Assay [1] concerns EKVX NSCLC.
For assay [2], the system named is TK-10 renal.
Assay [3] relates to NCI-H460 lung.
The subject of assay [4] is HL-60(TB) leukemia.
Assay [5] deals with OVCAR-4 ovarian.
The test system of assay [6] is KM20L2 colon.
For assay [7], the system named is M19-MEL melanoma.
In assay [8] the test system is HT29 colon.
The subject of assay [9] is HCT-15 colon.
Assay [10] concerns XF 498 CNS.
The test system of assay [11] is MDA-MB-231 breast.
In assay [12] the test system is MDA-N.

From PubChem BioAssay (NCI) come the findings set out here.

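96-well plates; 48 h exposure; 5 concentrations. Endpoints by linear interpolation between flanking doses. Not reached: highest tested concentration assigned. TGI denotes the concentration required for complete inhibition of growth.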 A value given as a limit tells only on which side of the number the result lay.

`C=C(NC(=O)C(=C)NC(=O)c1csc(C2=NC3c4csc(n4)C4NC(=O)c5csc(n5)C(C(C)(O)C(C)O)NC(=O)C5CSC(=N5)/C(=C/C)NC(=O)C(C(C)O)NC(=O)c5csc(n5)C3(CC2)NC(=O)C(C)NC(=O)C(=C)NC(=O)C(C)NC(=O)C(C(C)CC)NC2C=Cc3c(C(C)O)cc(nc3C2O)C(=O)OC4C)n1)C(N)=O` (stereo not given): the TGI is more than 44.1 µM in [1]; 31.3 µM in assay [2]; 4.39 µM in assay [3]; more than 100 µM in [4]; more than 100 µM in [5]; 10.7 µM in [6]. Further, the TGI is 3.05 µM in assay [7], 3.14 µM in assay [8] and more than 34 µM in assay [9].

Turning to `COc1ccc([C@@H]2CC(=O)N2)cc1`, the TGI in assay [10], in assay [1], in assay [2], in assay [3], in assay [4] and in assay [5] was more than 100 µM throughout. In addition, the TGI in assay [6], in assay [8] and in [9] was more than 100 µM in each case.

`O=C(c1ccccc1)C1S(=O)(=O)OCCOS1(=O)=O`: the TGI in assay [10], in [1], in assay [2], in assay [4], in [5] and in assay [7] was more than 100 µM throughout. Also, in assay [8], the TGI was more than 100 µM.

Turning to `Nc1[nH]nc2nc3ccccc3nc12`, the TGI in [1], in assay [11], in assay [2], in [3], in assay [4] and in [5] was more than 100 µM each time. In addition, the TGI in assay [12], in assay [8] and in [9] was more than 100 µM in each case.

Turning to `CN(C)c1ccc(/C=C(\NC(=O)c2ccccc2)C2=NC(CCC(=O)O)C(=O)O2)cc1` (stereo not given), the TGI in assay [1], in [11], in assay [2], in assay [3], in assay [4] and in assay [5] was more than 50 µM each time. In addition, the TGI in [12], in assay [8] and in assay [9] was more than 50 µM in each case.

Regarding `COc1ccc2c3c([nH]c2c1)CCN(CCCC(=O)c1ccc(F)cc1)C3`, the TGI in [1] came to 25.8 µM; in assay [11], 31.2 µM; in assay [2], 29.1 µM; in assay [3], 36.4 µM; in [4], 33.2 µM; in assay [5], 32.2 µM. For the same molecule, the TGI in assay [12] is 35.1 µM; in assay [8], 18.3 µM; in assay [9] it was 36.7 µM.

`CC(C)=CCC/C(C)=C/COc1c2ccoc2cc2oc(=O)ccc12`: the TGI was 72 µM in [1]; 86.5 µM in [11]; more than 100 µM in [2]; more than 100 µM in assay [3]; 50.5 µM in [4]; more than 100 µM in assay [5]. In addition, the TGI is more than 100 µM in assay [12], 81.1 µM in [8] and more than 100 µM in assay [9].

For the molecule `O=C(CCC=C(S(=O)(=O)c1ccccc1)S(=O)(=O)c1ccccc1)c1ccccc1`, the TGI came to 30.5 µM in assay [1]; 22.9 µM in assay [11]; 19.3 µM in [2]; 33.8 µM in assay [3]; 5.2 µM in [4]; 63.6 µM in [5]. The values for the TGI in assay [12], in [8] and in assay [9] were 14.8 µM, 17.5 µM and 20.8 µM, respectively.

As to `CCOC(=O)/C(=C/c1ccc(C(=O)OC)cc1)N(CC)CC`, the TGI in assay [1] is more than 100 µM; in assay [2] it was more than 100 µM; in assay [4] it was 69.4 µM; in assay [5], more than 100 µM; in assay [6], more than 100 µM; in assay [7], more than 100 µM. The TGI in [9] is more than 100 µM.

Consider `C=CCN(CCNS(=O)(=O)c1ccc(C)cc1)S(=O)(=O)c1ccc(C)cc1`, for which the TGI in [1] was 96.9 µM; in assay [11], more than 100 µM; in assay [2] it was more than 100 µM; in assay [3], more than 71.7 µM; in assay [4], 47.6 µM; in assay [5], more than 100 µM. Moreover, the TGI in assay [12], in [8] and in assay [9] was more than 100 µM throughout.

Take `N=c1c2c(=S)n(-c3ccccc3)c(=S)n(-c3ccccc3)c2nc(SCCN2CCCC2)n1-c1ccccc1`: the TGI in assay [1] worked out at 7.23 µM; in [11], 3.52 µM; in assay [2], 3.03 µM; in assay [3] it was 3.63 µM; in assay [4], 0.88 µM; in [5] it was 7.58 µM. The figures for the TGI in [12], in [8] and in assay [9] were 4.36 µM, 3.6 µM and 3.86 µM, respectively.

As for `COC(=O)c1c(C#N)c(N)nc2c1CCC2`, the TGI in [1], in assay [11], in assay [2], in assay [3], in assay [4] and in [5] was more than 100 µM in each case. Also, the TGI in assay [12], in [8] and in [9] was more than 100 µM throughout.

Regarding `CCOC(=O)C(NC(=O)c1ccccc1)(N1CCN(c2cc3c(cc2F)c(=O)c(C(=O)O)cn3CC)CC1)C(F)(F)F` (stereo not given), the TGI in assay [1] was 49 µM; in assay [11] it was 82.9 µM; in [2], 94.8 µM; in assay [3] it was more than 100 µM; in assay [4], 43 µM; in assay [5], more than 100 µM. The TGI in assay [12] was more than 100 µM; in assay [8], more than 100 µM; in [9], 64.9 µM.

As for `Cc1ccc(C(=O)Nc2ccc(CP(=O)(O)O)cc2CP(=O)(O)O)cc1NC(=O)Nc1cc(C(=O)Nc2ccc(CP(=O)(O)O)cc2CP(=O)(O)O)ccc1C`, the TGI in [1], in [11], in assay [2], in assay [3], in [4] and in assay [5] was more than 100 µM throughout. Further, the TGI in assay [12], in assay [8] and in assay [9] was more than 100 µM in each case.

As for `CCCCCCCCCCCC[C@@H](O)[C@H]1CCC([C@H](O)CCCCC(=O)CCCCCCCC2=C[C@H](C)OC2=O)O1` (stereo not given in full), the TGI was more than 50 µM in assay [1]; more than 50 µM in assay [11]; more than 50 µM in [2]; more than 50 µM in assay [3]; more than 28.8 µM in [4]; more than 50 µM in assay [5]. Also, the TGI in assay [12], in assay [8] and in assay [9] was more than 50 µM in each case.

Turning to `N#C/C(=C/c1ccc2c(c1)OCO2)C(=O)c1ccccc1`, the TGI in assay [10], in assay [1], in assay [2], in assay [3], in assay [5] and in [6] was more than 100 µM each time. The TGI in [7], in [8] and in assay [9] was more than 100 µM each time.

For the molecule `CCOC(=O)NC(OC)(C(F)(F)F)C(F)(F)F`, the TGI in [1], in assay [11], in assay [2], in assay [3], in [4] and in assay [5] was more than 100 µM each time. Also, the TGI in assay [12], in assay [8] and in [9] was more than 100 µM in each case.

In the case of `OCCN(/N=C\c1ccc2ccccc2c1)C1=NCCN1`, the TGI is more than 100 µM in assay [1]; 33.4 µM in assay [11]; more than 100 µM in [2]; more than 100 µM in assay [3]; 43.6 µM in assay [4]; more than 100 µM in assay [5]. Also, the results for the TGI in assay [12], in assay [8] and in assay [9] were 32.4 µM, 89 µM and more than 100 µM, respectively.

For the molecule `Cc1nc(C)c(N2CCNCC2)c(=O)[nH]1`, the TGI in assay [1], in [11], in assay [2], in [3], in assay [4] and in assay [5] was more than 100 µM each time. The TGI in [12], in assay [8] and in assay [9] was more than 100 µM in each case.

As for `O=c1[nH]cc(Cl)c(=O)[nH]1`, the TGI in assay [1], in assay [11], in assay [2], in assay [3], in assay [4] and in assay [5] was more than 100 µM each time. In addition, the TGI in assay [12], in [8] and in assay [9] was more than 100 µM each time.

`CCOC(=O)Nc1ccc2c(c1)c(CCCCCCc1nc3ccccc3c3ccc(NC(=O)OCC)cc13)nc1ccccc12`: the TGI in assay [1] is more than 100 µM; in assay [11] it was 67.8 µM; in assay [2] it was 84.8 µM; in [3], more than 100 µM; in assay [4], more than 100 µM; in assay [5] it was 74.2 µM. Further, the TGI in assay [12], in assay [8] and in assay [9] was more than 100 µM throughout.
